The structures appear in SMILES notation.

Assay [1] relates to Ramos B-Cell Line Stimulated with IL-4. In words: Assay for Ramos B-Cell Line Stimulated with IL-4 (CD23 upregulation, FACS; Example 2). In kind it is cell-based. Particulars: human Ramos B cells, IL-4 50 units/mL for 20-24 hours, anti-CD23-PE. The essentials: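 Human Ramos B cells (5×10^4 per point, RPMI with 5% serum) preincubated 1 hour at 37° C with compound or DMSO, then stimulated with IL-4 at 50 units/mL final for 20-24 hours. CD23 upregulation measured by anti-CD23-PE staining and flow cytometry.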

The subject of another assay is BaF3 V617F cells; UKE-1. The assay is described as follows: Proliferation Assay (Cell Titer-Glo; Example 7). In kind it is cell-based. The note with it: proliferation 72 hours, inhibit JAK2 activity, cell line (BaF3 V617F or UKE-1) not stated. The essentials:
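Proliferation IC50s reflect 72 h compound exposure at 37 °C, read by Cell Titer-Glo luminescence. Compound was serially diluted 3-fold from a 5 mM DMSO stock and added as a 2× solution; BaF3 V617F cells were grown in RPMI/10% FBS, UKE-1 in Iscove's DMEM with FBS, equine serum and hydrocortisone.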
Background: Cellular ATP, detected with luciferase, serves as a proxy for viable cell number.

In general, IC50 refers to the concentration that inhibits the measured activity by half. A low value points to greater potency. Take `N#Cc1cccc(Nc2ncc(F)c(Nc3ccc(CNS(=O)(=O)C4CC4)cc3)n2)c1` [II-30, N2-(3-cyano)phenyl-N4-(4-cyclopropylsulfonylaminomethyl)phenyl-5-fluoro-2,4-pyrimidinediamine]: the values for the IC50 (in assay [1]; in the assay with BaF3 V617F cells; UKE-1) were 0.0946 µM and 1.13 µM, respectively.

The values are drawn from US8304422B2, “Compositions and methods for inhibition of the JAK pathway” (Rigel Pharmaceuticals, Inc., priority 2007, dated 2012).
